Article PMC12607616, “Elucidation of a bacterial pathway for catabolism of the β–β-linked dilignol pinoresinol” (mBio, 2025)
Like-named read-outs stand apart in the source and are kept apart here.

Test system: T1, PinZ
T1 construct: full-length, N-terminal hexahistidine tag kept (pET-28a(+), pJM492), E. coli BL21 Star (DE3)
Test: steady-state kinetics, reversed-phase HPLC
Assay type: biochemical, Novosphingobium rhizosphaerae
Details: NADPH co-substrate, 20 mM Tris-HCl pH 7.0, 30 °C, 10 min, read-out: apparent Km

Row | Km (racemate) [µM] | Km (~88% e.e. (+)-pinoresinol preparation) [µM] | Compound
1 | 27 ± 6.6 | – | COc1cc(C2OCC3C(c4ccc(O)c(OC)c4)OCC23)ccc1O (racemic) [(±)-pinoresinol]
2 | – | 22.1 ± 3.2 | COc1cc([C@H]2OC[C@H]3[C@@H]2CO[C@@H]3c2ccc(O)c(OC)c2)ccc1O [(+)-pinoresinol]
